Consider 51 molecules from patent US8367668B2, “Pyridazinone derivatives” (Merck Patent Gesellschaft mit Beschränkter Haftung, priority 2007, dated 2013).

T1 sequence (P08581 974-1390 limits assumed): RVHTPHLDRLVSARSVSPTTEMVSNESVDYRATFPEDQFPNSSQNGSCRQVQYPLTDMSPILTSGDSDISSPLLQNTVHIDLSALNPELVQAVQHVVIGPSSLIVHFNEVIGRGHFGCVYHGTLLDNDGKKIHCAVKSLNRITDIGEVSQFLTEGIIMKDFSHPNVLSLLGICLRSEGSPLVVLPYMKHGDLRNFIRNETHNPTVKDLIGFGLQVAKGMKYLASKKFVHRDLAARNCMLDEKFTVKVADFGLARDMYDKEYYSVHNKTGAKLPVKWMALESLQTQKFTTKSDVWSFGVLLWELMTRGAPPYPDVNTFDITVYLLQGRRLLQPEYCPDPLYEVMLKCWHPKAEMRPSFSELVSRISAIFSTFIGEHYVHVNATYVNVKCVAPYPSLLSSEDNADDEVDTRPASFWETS

The experiment concerns the target T1, Met kinase (Homo sapiens, UniProt P08581).
T1 construct: 6His (N); purchased Upstate 14-526; host or cells: Sf21 insect cells (S. frugiperda), baculovirus
The experiment is described as follows: Met kinase inhibition (enzyme assay), flashplate method. Type of experiment: biochemical. The text has this: Measurement of Met Kinase Activity
According to the manufacturer's data (Met, active, upstate, catalogue No. 14-526), Met kinase is expressed for the purposes of protein production in insect cells (Sf21; S. frugiperda) and subsequent affinity-chromatographic purification as “N-terminal 6His-tagged” recombinant human protein in a baculovirus expression vector.
The kinase activity can be measured using various available measurement systems. In the scintillation proximity method (Sorg et al., J. of Biomolecular Screening, 2002, 7, 11-19), the flashplate method or the filter binding test, the radioactive phosphorylation of a protein or peptide as substrate is measured using radioactively labelled ATP (^32P-ATP, ^33P-ATP). In the case of the presence of an inhibitory compound, a reduced radioactive signal, or none at all, can be detected. Furthermore, homogeneous time-resolved fluorescence resonance energy transfer (HTR-FRET) and fluoroescence polarisation (FP) technologies can be used as assay methods (Sills et al., J. of Biomolecular Screening, 2002, 191-214).
Flashplate Method (Met Kinase)
The test plates used are 96-well Flashplate® microtitre plates from Perkin Elmer (Cat. No. SMP200). The components of the kinase reaction described below are pipetted into the assay plate. The Met kinase and the substrate poly Ala-Glu-Lys-Tyr, (pAGLT, 6:2:5:1), are incubated for 3 hrs at room temperature with radioactively labelled ^33P-ATP in the presence and absence of test substances in a total volume of 100 μl. The reaction is terminated using 150 μl of a 60 mM EDTA solution. After incubation for a further 30 min at room temperature, the supernatants are filtered off with suction, and the wells are washed three times with 200 μl of 0.9% NaCl solution each time. The measurement of the bound radioactivity is carried out by means of a scintillation measuring instrument (Topcount NXT, Perkin-Elmer).
The full value used is the inhibitor-free kinase reaction. This should be approximately in the range 6000-9000 cpm. The pharmacological zero value used is staurosporin in a final concentration of 0.1 mM. The inhibitory values (IC50) are determined using the RS1_MTS program.
Kinase reaction conditions per well: • 30 μl of assay buffer • 10 μl of substance to be tested in assay buffer with 10% of DMSO • 10 μl of ATP (final concentration 1 μM cold, 0.35 μCi of ^33P-ATP) • 50 μl of Met kinase/substrate mixture in assay buffer; • (10 ng of enzyme/well, 50 ng of pAGLT/well)
50 mM HEPES • 3 mM magnesium chloride • 3 μM sodium orthovanadate • 3 mM manganese(II) chloride • 1 mM dithiothreitol (DTT)
pH=7.5 (to be set using sodium hydroxide)
60 mM Titriplex III (EDTA)
Met kinase: Upstate, Cat. No. 14-526, Stock 1 μg/10 μl; spec. activity 954 U/mg;
Poly-Ala-Glu-Lys-Tyr, 6:2:5:1: Sigma Cat. No. P1152
Pharmacological Data Met Kinase Inhibitions (Enzyme Assay)
The IC50 is the concentration that gives 50% inhibition. In turn, `CCOC(=O)Nc1cccc(Cn2nc(-c3ccc(C(=O)NCCO)cc3)ccc2=O)c1` [A2, ethyl(3-{3-[4-(2-hydroxyethylcarbamoyl)phenyl]-6-oxo-6H-pyridazin-1-ylmethyl}phenyl)carbamate] gave an IC50 of 10 to 1000 nM.
The figure for `CCOC(=O)Nc1cccc(Cn2nc(-c3ccc(C(=O)NCCOC)cc3)ccc2=O)c1` [A3] is 10 to 1000 nM; for `CCOC(=O)Nc1cccc(Cn2nc(-c3ccc(C(=O)NCCCO)cc3)ccc2=O)c1` [A5] it is 10 to 1000 nM; for `CCOC(=O)Nc1cccc(Cn2nc(-c3ccc(C(=O)NCC(O)CO)cc3)ccc2=O)c1` (stereo not drawn) [A6] it is 10 to 1000 nM.
Next, `CCOC(=O)Nc1cccc(Cn2nc(-c3ccc(C(=O)NCCS(C)(=O)=O)cc3)ccc2=O)c1` [A7]: 10 to 1000 nM; `CCOC(=O)CNC(=O)c1ccc(-c2ccc(=O)n(Cc3cccc(NC(=O)OCC)c3)n2)cc1` [A8]: 10 to 1000 nM.
The figure for `CCOC(=O)CN(C)C(=O)c1ccc(-c2ccc(=O)n(Cc3cccc(NC(=O)OCC)c3)n2)cc1` [A9] is 10 to 1000 nM; for `CCOC(=O)Nc1cccc(Cn2nc(-c3ccc(C(=O)NCCCn4ccnc4)cc3)ccc2=O)c1` [A10] it is 10 to 1000 nM; for `CCOC(=O)Nc1cccc(Cn2nc(-c3ccc(C(=O)NCCCCN(C)C)cc3)ccc2=O)c1` [A11] it is 10 to 1000 nM.
On to `CCOC(=O)Nc1cccc(Cn2nc(-c3ccc(C(=O)N(C)CCO)cc3)ccc2=O)c1` [A12], for which the IC50 fell in the range of 10 to 1000 nM.
On to `CCOC(=O)CCNC(=O)c1ccc(-c2ccc(=O)n(Cc3cccc(NC(=O)OCC)c3)n2)cc1` [A13], for which the IC50 was in the range of 10 to 1000 nM.
The molecule `CCOC(=O)Nc1cccc(Cn2nc(-c3ccc(C(=O)NCCCN(C)C)cc3)ccc2=O)c1` [A14] returned an IC50 of 10 to 1000 nM.
The figure for `CCOC(=O)Nc1cccc(Cn2nc(-c3ccc(C(=O)NCCN(C)C)cc3)ccc2=O)c1` [A15] is 10 to 1000 nM; for `CCOC(=O)Nc1cccc(Cn2nc(-c3ccc(C(=O)NCCCOC)cc3)ccc2=O)c1` [A16] it is 10 to 1000 nM; for `CCOC(=O)Nc1cccc(Cn2nc(-c3ccc(C(=O)NCCN4CCOCC4)cc3)ccc2=O)c1` [A17] it is 10 to 1000 nM.
Turning to `CCOC(=O)Nc1cccc(Cn2nc(-c3ccc(C(=O)NCCN4CCCCC4)cc3)ccc2=O)c1` [A18], the IC50 is 10 to 1000 nM.
The figure for `CCOC(=O)Nc1cccc(Cn2nc(-c3ccc(C(=O)N(C)CCN(CC)CC)cc3)ccc2=O)c1` [A19] is 10 to 1000 nM; for `CCOC(=O)Nc1cccc(Cn2nc(-c3ccc(C(=O)NCCN(CC)CC)cc3)ccc2=O)c1` [A20] it is 10 to 1000 nM; for `CCOC(=O)Nc1cccc(Cn2nc(-c3ccc(C(=O)NCCNC(C)C)cc3)ccc2=O)c1` [A21] it is 10 to 1000 nM.
Next, `CCOC(=O)Nc1cccc(Cn2nc(-c3ccc(C(=O)NCCCN4CCN(C)CC4)cc3)ccc2=O)c1` [A22]: 10 to 1000 nM.
Next, `CCOC(=O)Nc1cccc(Cn2nc(-c3ccc(C(=O)NCCCN4CCCC4)cc3)ccc2=O)c1` [A23]: 10 to 1000 nM; `CCOC(=O)Nc1cccc(Cn2nc(-c3ccc(C(=O)NCCCN4CCCC4=O)cc3)ccc2=O)c1` [A24]: 10 to 1000 nM.
`CCOC(=O)Nc1cccc(Cn2nc(-c3ccc(C(=O)NCCCN(CC)CC)cc3)ccc2=O)c1` [A25] displayed an IC50 of 10 to 1000 nM.
The molecule `CCOC(=O)Nc1cccc(Cn2nc(-c3ccc(C(=O)NCCCN4CCCCC4)cc3)ccc2=O)c1` [A26] registered an IC50 of 10 to 1000 nM.
Next, `CCOC(=O)Nc1cccc(Cn2nc(-c3ccc(C(=O)NCCCN4CCOCC4)cc3)ccc2=O)c1` [A27]: 10 to 1000 nM; `CCOC(=O)Nc1cccc(Cn2nc(-c3ccc(C(=O)NCCCCN4CCCC4)cc3)ccc2=O)c1` [A28]: 10 to 1000 nM.
As to `CCOC(=O)Nc1cccc(Cn2nc(-c3ccc(C(=O)NCCCCO)cc3)ccc2=O)c1` [A42], the IC50 is 10 to 1000 nM.
Next, `CCOC(=O)Nc1cccc(Cn2nc(-c3cccc(C(=O)NCCCCNC(=O)OC(C)(C)C)c3)ccc2=O)c1` [A43, ethyl(3-{3-[3-(4-tert-butoxycarbonylaminobutylcarbamoyl)-phenyl]-6-oxo-6H-pyridazin-1-ylmethyl}phenyl)carbamate]: 10 to 1000 nM; `CCOC(=O)Nc1cccc(Cn2nc(-c3cccc(C(=O)NCCCNC(=O)OC(C)(C)C)c3)ccc2=O)c1` [A44]: 10 to 1000 nM.
The figure for `CCOC(=O)Nc1cccc(Cn2nc(-c3cccc(C(=O)NCCNC(=O)OC(C)(C)C)c3)ccc2=O)c1` [A45] is 10 to 1000 nM; for `CCOC(=O)Nc1cccc(Cn2nc(-c3cccc(C(=O)NCCCCN(C)C)c3)ccc2=O)c1` [A46] it is 10 to 1000 nM; for `CCOC(=O)Nc1cccc(Cn2nc(-c3cccc(C(=O)NCCCN(C)C)c3)ccc2=O)c1` [A47] it is 10 to 1000 nM.
The figure for `CCOC(=O)Nc1cccc(Cn2nc(-c3cccc(C(=O)NCCN(C)C)c3)ccc2=O)c1` [A48] is 10 to 1000 nM; for `CCOC(=O)Nc1cccc(Cn2nc(-c3cccc(C(=O)NCCO)c3)ccc2=O)c1` [A49] it is 10 to 1000 nM; for `CCOC(=O)Nc1cccc(Cn2nc(-c3cccc(C(=O)NCCOC)c3)ccc2=O)c1` [A50] it is 10 to 1000 nM.
The molecule `CCOC(=O)Nc1cccc(Cn2nc(-c3cccc(C(=O)NCCCOC)c3)ccc2=O)c1` [A51] returned a concentration for half-maximal inhibition (IC50) of 10 to 1000 nM.
The figure for `CCOC(=O)Nc1cccc(Cn2nc(-c3cccc(C(=O)NCCCO)c3)ccc2=O)c1` [A52] is 10 to 1000 nM; for `CCOC(=O)Nc1cccc(Cn2nc(-c3cccc(C(=O)NCCCCO)c3)ccc2=O)c1` [A53] it is 10 to 1000 nM; for `CCOC(=O)Nc1cccc(Cn2nc(-c3ccc(CC(=O)NCCCCNC(=O)OC(C)(C)C)cc3)ccc2=O)c1` [A54, ethyl[3-(3-{4-[(4-tert-butoxycarbonylaminobutyl-carbamoyl)methyl]phenyl}-6-oxo-6H-pyridazin-1-ylmethyl)phenyl]-carbamate] it is 10 to 1000 nM.
The figure for `CCOC(=O)Nc1cccc(Cn2nc(-c3ccc(CC(=O)NCCNC(=O)OC(C)(C)C)cc3)ccc2=O)c1` [A55] is 10 to 1000 nM.
The figure for `CCOC(=O)Nc1cccc(Cn2nc(-c3ccc(CC(=O)NCCCCN(C)C)cc3)ccc2=O)c1` [A56] is 10 to 1000 nM.
In turn, `CCOC(=O)Nc1cccc(Cn2nc(-c3ccc(CC(N)=O)cc3)ccc2=O)c1` [A57] registered an IC50 of 10 to 1000 nM.
Next, `CCOC(=O)Nc1cccc(Cn2nc(-c3cccc(CC(=O)NCCCNC(=O)OC(C)(C)C)c3)ccc2=O)c1` [A61]: 10 to 1000 nM; `CCOC(=O)Nc1cccc(Cn2nc(-c3cccc(CC(=O)NCCNC(=O)OC(C)(C)C)c3)ccc2=O)c1` [A62]: 10 to 1000 nM; `CCOC(=O)Nc1cccc(Cn2nc(-c3cccc(CC(=O)NCCCCN(C)C)c3)ccc2=O)c1` [A63]: 10 to 1000 nM.
`CCOC(=O)Nc1cccc(Cn2nc(-c3cccc(CC(=O)NCCCN(C)C)c3)ccc2=O)c1` [A64] returned an IC50 of 10 to 1000 nM.
The figure for `CCOC(=O)Nc1cccc(Cn2nc(-c3cccc(CC(=O)NCCN(C)C)c3)ccc2=O)c1` [A65] is 10 to 1000 nM.
`CCOC(=O)Nc1cccc(Cn2nc(-c3cccc(CC(=O)NCCCO)c3)ccc2=O)c1` [A66] displayed an IC50 of 10 to 1000 nM.
Next, `CCOC(=O)Nc1cccc(Cn2nc(-c3cccc(CC(=O)N(C)CCO)c3)ccc2=O)c1` [A67]: 10 to 1000 nM; `CCOC(=O)Nc1cccc(Cn2nc(-c3cccc(CC(=O)NCCOC)c3)ccc2=O)c1` [A68]: 10 to 1000 nM.
Next, `CCOC(=O)Nc1cccc(Cn2nc(-c3cccc(CC(N)=O)c3)ccc2=O)c1` [A69]: 10 to 1000 nM.
